Measurements as given in publication PMC10955399 (RSC Advances, 2024).

Assays:
[1] = system: Bacillus cereus (MTCC2128); assay: Agar well diffusion antibacterial activity; assay type: cell-based; conditions: for Zone of inhibition, Bacillus cereus: 100 μl, compound 1 mg mL^−1, radius of inhibition zone; for inhibitory activity against Bacillus cereus (in words): 1 mg mL^−1
[2] = system: Escherichia coli (MTCC2412); assay: Agar well diffusion antibacterial activity; assay type: cell-based; conditions: for Zone of inhibition, Escherichia coli: compound 1 mg mL^−1, radius of inhibition zone
[3] = system: Staphylococcus; conditions: at the concentration tested; cited from earlier work
[4] = system: Enterococcus faecium; conditions: at the concentration tested; cited from earlier work
[5] = system: Acinetobacter baumannii; conditions: cited from earlier work

Compound: Nc1ncnc2c1cnn2C=C1CC1(CO)CO [10a (E&Z), (2-((4-amino-1H-pyrazolo[3,4-d]pyrimidin-1-yl)methylene)cyclopropane-1,1-diyl) dimethanol]
- Zone of inhibition, Bacillus cereus ([1]; listed as 10a): 2.2 ± 0.25 mm
- Zone of inhibition, Escherichia coli ([2]; 100 μl, listed as 10a): 1.2 ± 0.15 mm

Compound: Nc1ncnc2c1cnn2C=C1CC1(CO)CO [10a (E-Isomer), (2-((4-amino-1H-pyrazolo[3,4-d]pyrimidin-1-yl)methylene)cyclopropane-1,1-diyl) dimethanol]
- inhibitory activity against Bacillus cereus (in words) [1]: showed inhibitory activity
- zone of inhibition against Escherichia coli (in words) ([2]; 1 mg mL^−1): zone of inhibition was observed
- Zone of inhibition, Escherichia coli ([2]; 75 μl): 0.9 ± 0.05 mm

Compound: Nc1ncnc2c1cnn2C=C1CC1(CO)CO [10a (Z-Isomer), (2-((4-amino-1H-pyrazolo[3,4-d]pyrimidin-1-yl)methylene)cyclopropane-1,1-diyl) dimethanol]
- Zone of inhibition, Escherichia coli ([2]; 75 μl): 0.9 ± 0.05 mm
- Zone of inhibition, Escherichia coli ([2]; 100 μl): 1.2 ± 0.15 mm

Compound: Nc1ncnc2c1c(I)nn2C=C1CC1(CO)CO [10b (E&Z), (2-((4-amino-3-iodo-1H-pyrazolo[3,4-d]pyrimidin-1-yl)methylene)cyclopropane-1,1-diyl)dimethanol]
- inhibitory activity against Bacillus cereus (in words) [1]: showed inhibitory activity
- Zone of inhibition, Bacillus cereus ([1]; listed as 10b): 1.4 ± 0.1 mm

Compound: Nc1ncnc2c1c(I)nn2C=C1CC1(CO)CO [10b (Z-Isomer), (2-((4-amino-3-iodo-1H-pyrazolo[3,4-d]pyrimidin-1-yl)methylene)cyclopropane-1,1-diyl)dimethanol]
- Zone of inhibition, Bacillus cereus [1]: 2.2 ± 0.25 mm

Compound: Nc1ncnc2c1c(-c1ccc(Oc3ccccc3)cc1)nn2C=C1CC1(CO)CO [10c (E&Z), (2-((4-amino-3-(4-phenoxyphenyl)-1H-pyrazolo[3,4-d]pyrimidin-1-yl)methylene)cyclopropane-1,1-diyl) dimethanol]
- inhibitory activity against Bacillus cereus (in words) [1]: showed inhibitory activity

Compound: CC(C)=CCCC1(C)C(CC=C(C)C)CC23CCC(C)(C)OC2=C(C(=O)c2ccc(O)c(O)c2)C(=O)C1(CC=C(C)C)C3=O (centres unmarked) [schomburgkianone I]
- inhibitory effect on Staphylococcus (in words) [3]: exhibited inhibitory effects
- inhibitory effect on Enterococcus faecium (in words) [4]: exhibited inhibitory effects
- activity against Acinetobacter baumannii (in words) [5]: no activity
